Measured values as given in the NIST ThermoML archive (doi:10.1021/je060271a).

Conditions: 283.16 K, Liquid, Vibrating tube method

CCCC(=O)OCC(COC(=O)CCC)(COC(=O)CCC)COC(=O)CCC [pentaerythritol tetrabutyrate]
Conditions	mass density [kg/m3]
19617 kPa	1070.2
19631 kPa	1070.3
19642 kPa	1070.3
19654 kPa	1070.3
19669 kPa	1070.3
19681 kPa	1070.2
19694 kPa	1070.3
19706 kPa	1070.4
19717 kPa	1070.3
19732 kPa	1070.3
19743 kPa	1070.3
19757 kPa	1070.3
19769 kPa	1070.3
19781 kPa	1070.4
19796 kPa	1070.4
19807 kPa	1070.3
19819 kPa	1070.4
19834 kPa	1070.4
19846 kPa	1070.3
19858 kPa	1070.5
19870 kPa	1070.5
19885 kPa	1070.4
19897 kPa	1070.4
19909 kPa	1070.4
19921 kPa	1070.3
19936 kPa	1070.4
19947 kPa	1070.4
19962 kPa	1070.5
19975 kPa	1070.6
19986 kPa	1070.5
20001 kPa	1070.5
20014 kPa	1070.5
20026 kPa	1070.3
20039 kPa	1070.6
20053 kPa	1070.5
20065 kPa	1070.5
20077 kPa	1070.5
20092 kPa	1070.5
20104 kPa	1070.5
20117 kPa	1070.6
20130 kPa	1070.5
20145 kPa	1070.6
20157 kPa	1070.7
20170 kPa	1070.5
20185 kPa	1070.6
20197 kPa	1070.6
20210 kPa	1070.6
20225 kPa	1070.6
20237 kPa	1070.6
20250 kPa	1070.6
20264 kPa	1070.7
20277 kPa	1070.6
20290 kPa	1070.8
20305 kPa	1070.6
20317 kPa	1070.6
20330 kPa	1070.7
20468 kPa	1070.7
20480 kPa	1070.8
20493 kPa	1070.6
20506 kPa	1070.8
20521 kPa	1070.7
20534 kPa	1070.8
20548 kPa	1070.8
20563 kPa	1070.8
20576 kPa	1070.8
20592 kPa	1070.8
20605 kPa	1070.8
20618 kPa	1070.8
20773 kPa	1070.9
20787 kPa	1070.9
20800 kPa	1070.9
20816 kPa	1070.9
20829 kPa	1071
20845 kPa	1071
20858 kPa	1070.8
20872 kPa	1071
20886 kPa	1071
20900 kPa	1071
20914 kPa	1070.9
20930 kPa	1071
21000 kPa	1071
21016 kPa	1071
21030 kPa	1071
21044 kPa	1071
21060 kPa	1071
21076 kPa	1071
21090 kPa	1071.1
21104 kPa	1071.1
21118 kPa	1071.1
21134 kPa	1071
21148 kPa	1071.1
21162 kPa	1071
21178 kPa	1071.1
21192 kPa	1071
21209 kPa	1071
21223 kPa	1071.1
21237 kPa	1071.1
21251 kPa	1071.1
21267 kPa	1071.1
21282 kPa	1071.2
21295 kPa	1071.3
21312 kPa	1071.2
21326 kPa	1071.2
21340 kPa	1071.1
21400 kPa	1071.2
21417 kPa	1071.2
21431 kPa	1071.2
21445 kPa	1071.3
21463 kPa	1071.3
21477 kPa	1071.2
21491 kPa	1071.2
21508 kPa	1071.2
21523 kPa	1071.4
21537 kPa	1071.2
21554 kPa	1071.4
21568 kPa	1071.3
21600 kPa	1071.4
21723 kPa	1071.4
21785 kPa	1071.4
21800 kPa	1071.4
21818 kPa	1071.5
22023 kPa	1071.5
22039 kPa	1071.6
22057 kPa	1071.6
22072 kPa	1071.6
22087 kPa	1071.6
22102 kPa	1071.6
22121 kPa	1071.5
22136 kPa	1071.6
22154 kPa	1071.6
22169 kPa	1071.6
22184 kPa	1071.6
22200 kPa	1071.7
22219 kPa	1071.6
22234 kPa	1071.6
22250 kPa	1071.7
22266 kPa	1071.6
22284 kPa	1071.6
22300 kPa	1071.7
22316 kPa	1071.7
22331 kPa	1071.7
22790 kPa	1071.9
22826 kPa	1071.9
22842 kPa	1072
22861 kPa	1072.1
22877 kPa	1072
